We go through 2 compounds from patent publication US4061626A, “Somatostatin analogs and intermediates thereto” (Eli Lilly and Company, priority 1976, dated 1977).

One assay has as its system gastric HCl secretion. Kind of assay: in vivo inhibition of gastric acid secretion in dogs with chronic gastric fistula and Heidenhain pouch. The conditions noted are these: infused at 3 μg/kg-hr. for one hour, secretion induced by C-terminal tetrapeptide of gastrin 0.5 μg/kg-hr. As to the method:
D-Lys^4 -somatostatin and D-Ala^2,D-Lys^4 -somatostatin also were tested in dogs for their in vivo inhibition of gastric acid secretion. In dogs with chronic gastric fistula and Heidenhain pouch, gastric HCl secretion was induced by infusion of the C-terminal tetrapeptide of gastrin at 0.5 μg/kg-hr. One dog served as control, receiving only the tetrapeptide. Another dog received the tetrapeptide and somatostatin while the test compound was administered to other dogs in place of somatostatin. After one hour of steady state secretion of HCl, somatostatin or the test compound was infused at 3 μg/kg-hr. for one hour. Collection of gastric acid samples was continued for an additional 1.5 hours at 15 minute intervals.

The subject of another assay is pancreatic secretion. Kind of assay: inhibition of secretin-induced pancreatic secretion in dogs with pancreatic and total gastric fistula. Type of assay: in vivo. To be noted: 3 μg/kg-hr for one hour, secretin 0.5 unit/kg-hr. The method, then: D-Ala^2,D-Lys^4 -somatostatin was also shown to inhibit pancreatic secretion. In three dogs having both pancreatic and total gastric fistula, secretion from the pancreas was induced by infusion of secretin at 0.5 unit/kg-hr. and gastric HCl by infusion of tetragastrin at 0.5 μg/kg-hr. After a steady response was established, administration of the test compound was begun. One of the dogs was retained as control, and, of the remaining two dogs, one received somatostatin and the other D-Ala^2,D-Lys^4 -somatostatin, each for one hour at 3 μg/kg-hr.Peak inhibitory effects expressed as percent changes over control are as follows: […]

The test system of a further assay is growth hormone secretion. Kind of assay: release of growth hormone in sodium pentobarbital-stimulated rats. Type of assay: in vivo, Spraque-Dawley rats. The method, then: D-Lys^4 -somatostatin and D-Ala^2,D-Lys^4 -somatostatin also were tested for their activity with respect to the release of growth hormone. The procedure which was employed is carried out using mature male Spraque-Dawley rats (Laboratory Supply Company, Indianapolis, Indiana). The test is a modification of the method of P. Brazeau, W. Vale, and R. Guilleman, Endocrinology, 94 184 (1974). In this assay, two sets, one comprising five groups of eight rats each and the other comprising three groups of eight rats each were employed. First, sodium pentobarbital was administered to all of the rats of a particular set to stimulate growth hormone secretion. In the set comprising five groups of eight rats, one group is the control group and received only saline. Two of the groups received somatostatin, one at 2 μg./rat, subcutaneously, and the other at 50 μg./rat, subcutaneously. The other two groups received D-Ala^2,D-Lys^4 -somatostatin, one at 2 μg./rat, subcutaneously and the other at 50 μg./rat, subcutaneously. The degree of inhibition of serum growth hormone concentration then was determined with respect to the control group, and the relative activities of D-Ala^2,D-Lys^4 -somatostatin and somatostatin itself were compared.
The other set of three groups of eight rats each was treated in the same manner as above, with the exception the D-Lys^4 -somatostatin was used in place of D-Ala^2,D-Lys^4 -somatostatin, and the test was carried out only at a 50 μg./rat dose level. The D-Lys^4 -somatostatin stimulated growth hormone secretion by about 8 percent over control, while somatostatin in this set inhibited growth hormone secretion by 70 percent over control.

The subject of assay [1] is glucagon and insulin secretion. Kind of assay: in vivo inhibition of glucagon and insulin secretion upon stimulation with L-alanine. More on the design: species or system mongrel dogs. The conditions noted are these: dogs. As to the method:
D-Ala^2,D-Lys^4 -somatostatin was tested for its in vivo activity in inhibiting glucagon and insulin secretion upon stimulation with L-alanine. Normal mongrel dogs of either sex were fasted overnight. Control blood samples were obtained, and then an intravenous infusion of saline, somatostatin, or D-Ala^2,D-Lys^4 -somatostatin was started. After 30 minutes, L-alanine additionally was administered intravenously for a period of 15 minutes. The infusion of saline, somatostatin, or D-Ala^2,D-Lys^4 -somatostatin was continued for 15 minutes after completion of the alanine infusion. The total dose of somatostatin or D-Ala^2,D-Lys^4 -somatostatin which was infused is 200-500 μg./dog (0.20-0.30 μg/kg./minute), and the total dose of L-alanine infused was 1 mmol/kg.

Another assay deals with glucagon secretion. Kind of assay: in vivo inhibition of glucagon secretion upon stimulation with insulin. On the set-up: species or system mongrel dogs. The conditions noted are these: dogs; insulin 0.3 units/kg. i.v.; infusion 0.07-0.13 μg/kg/min. (D-Lys^4 at 0.150, D-Ala^2,D-Lys^4 at 0.114 μg/kg/min.). The method, then: D-Lys^4 -somatostatin and D-Ala^2,D-Lys^4 -somatostatin also were evaluated for in vivo activity in inhibiting glucagon secretion upon stimulation with insulin. Normal mongrel dogs of either sex were fasted overnight. After control blood samples had been obtained, an intravenous infusion of saline, somatostatin, D-Lys^4 -somatostatin, or D-Ala^2,D-Lys^4 -somatostatin was commenced. After 15 minutes, insulin, 0.3 units/kg., was injected intravenously. The infusion of saline, somatostatin, or the test compound was continued for two hours, and blood samples were obtained at various intervals throughout the test. The total dose of the somatostatin or test compound ranged from 120-260 μg./dog (0.07-0.13 μg/kg/min.). Administration of insulin produced a reduction in the blood glucose concentration and an increase in serum glucagon concentration.

Where [2] appears, read: intravenous infusion 0.20-0.30 μg/kg./minute (D-Ala^2,D-Lys^4 -somatostatin at 0.253 μg/kg/min.), L-alanine 1 mmol/kg.

Where a SMILES comes first, the peptide text is derived from it.

As to `C[C@H](N)C(=O)N[C@H](C)C(=O)N[C@H]1CSSC[C@@H](C(=O)O)NC(=O)[C@H](CO)NC(=O)[C@H]([C@@H](C)O)NC(=O)[C@H](Cc2ccccc2)NC(=O)[C@H]([C@@H](C)O)NC(=O)[C@H](CCCCN)NC(=O)[C@H](Cc2c[nH]c3ccccc23)NC(=O)[C@H](Cc2ccccc2)NC(=O)[C@H](Cc2ccccc2)NC(=O)[C@H](CC(N)=O)NC(=O)[C@@H](CCCCN)NC1=O` [D-Ala^2,D-Lys^4 -somatostatin, D-Ala^2, D-Lys^4 -somatostatin] (HELM PEPTIDE1{A.[dA].C.[dK].N.F.F.W.K.T.F.T.S.C}$PEPTIDE1,PEPTIDE1,3:R3-14:R3$$$V2.0), the “inhibition of gastric acid secretion relative to the control” value in the assay with gastric HCl secretion stood at 50.9%. Further, in the assay with pancreatic secretion, the “Pancreatic Secretion HCO3^-, peak inhibitory effect as percent change over control” value is on record as -68%; the “Pancreatic Secretion Protein, peak inhibitory effect as percent change over control” value was -55.4%; the “Pancreatic Secretion Volume, peak inhibitory effect as percent change over control” value was -61%. In addition, in the assay with growth hormone secretion (2 μg./rat, subcutaneously, set of five groups), the “stimulation of growth hormone secretion over control” value (“stimulation … over control” for short) came out at 114%. Further, the “stimulation … over control” value in the assay on growth hormone secretion (50 μg./rat, subcutaneously, set of five groups) was around 200%. The “effect on basal serum insulin concentration” value in assay [1] (intravenous infusion 0.20-0.30 μg/kg./minute (D-Ala^2,D-Lys^4 -somatostatin at 0.253 μg/kg/min.)) was “slight decrease”. In assay [1] (setting [2]), the “effect on the rise in serum glucagon concentration during infusion of L-alanine” value is on record as “partial inhibition” and the “effect on the rise in serum insulin concentration during infusion of L-alanine” value is listed as “partial inhibition”. In addition, the “effect on basal secretion of glucagon” value in assay [1] (intravenous infusion at 0.253 μg/kg/min.) is listed as “slight decrease”. For the same compound, the “effect on the increase in serum glucagon concentration produced by insulin administration” value with glucagon secretion is “neither inhibited”.
Turning to `C[C@H](N)C(=O)NCC(=O)N[C@H]1CSSC[C@@H](C(=O)O)NC(=O)[C@H](CO)NC(=O)[C@H]([C@@H](C)O)NC(=O)[C@H](Cc2ccccc2)NC(=O)[C@H]([C@@H](C)O)NC(=O)[C@H](CCCCN)NC(=O)[C@H](Cc2c[nH]c3ccccc23)NC(=O)[C@H](Cc2ccccc2)NC(=O)[C@H](Cc2ccccc2)NC(=O)[C@H](CC(N)=O)NC(=O)[C@@H](CCCCN)NC1=O` [D-Lys^4 -somatostatin], in the assay with gastric HCl secretion, the “inhibition of gastric acid secretion relative to the control” value is 87.3%. In addition, the “stimulation … over control” value in the assay with growth hormone secretion (50 μg./rat, set of three groups) is reported as “about 8%”. In addition, the “effect on the increase in serum glucagon concentration produced by insulin administration” value in the assay on glucagon secretion is recorded as “neither inhibited”.
